Target: T1, recombinant human GR (Homo sapiens, UniProt P04150)
T1 construct: purchased Panvera/Invitrogen P2812 (kit P2893)
T1 sequence (P04150 1-777): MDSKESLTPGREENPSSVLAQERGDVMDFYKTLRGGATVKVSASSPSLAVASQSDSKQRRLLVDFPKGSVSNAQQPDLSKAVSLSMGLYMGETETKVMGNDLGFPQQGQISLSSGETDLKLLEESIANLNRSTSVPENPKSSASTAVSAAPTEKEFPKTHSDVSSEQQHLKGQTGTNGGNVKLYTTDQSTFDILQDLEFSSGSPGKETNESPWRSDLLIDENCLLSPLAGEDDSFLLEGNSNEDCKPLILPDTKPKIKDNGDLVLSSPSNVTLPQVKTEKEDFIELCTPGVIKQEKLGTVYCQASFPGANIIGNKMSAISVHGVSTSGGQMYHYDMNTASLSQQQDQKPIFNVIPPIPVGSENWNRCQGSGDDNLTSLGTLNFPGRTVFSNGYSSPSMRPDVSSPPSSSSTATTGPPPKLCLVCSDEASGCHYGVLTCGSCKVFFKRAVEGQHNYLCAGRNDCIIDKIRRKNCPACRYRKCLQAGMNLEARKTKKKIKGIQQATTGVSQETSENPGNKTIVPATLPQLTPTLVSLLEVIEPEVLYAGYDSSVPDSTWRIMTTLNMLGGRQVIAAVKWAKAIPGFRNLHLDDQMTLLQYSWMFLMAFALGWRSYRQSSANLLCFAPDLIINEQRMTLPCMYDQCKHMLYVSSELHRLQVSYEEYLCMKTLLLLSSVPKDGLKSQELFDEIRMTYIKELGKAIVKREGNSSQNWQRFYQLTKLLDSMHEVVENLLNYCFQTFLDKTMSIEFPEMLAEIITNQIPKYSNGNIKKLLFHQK
Assay: Human Glucocorticoid Receptor (GR) Assay (fluorescence polarization, Panvera/Invitrogen kit)
Format: binding
Details: fluorescence polarization; GS Red tracer; 2 hours at room temperature; 100% control 10 μM Dexamethasone; read-out: Inhibition of GR binding, IC50
Method in brief: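 Fluorescence polarization competition with recombinant GR and GS Red fluorescent ligand plus stabilizing peptide and DTT in potassium phosphate/sodium molybdate/EDTA buffer with DMSO. Incubated 2 hours at room temperature in the dark; 0% control DMSO, 100% control 10 μM dexamethasone.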

| Compound | IC50 |
| --- | --- |
| C[C@]12Cc3cnn(-c4ccc(F)nc4)c3C=C1CC[C@@H]1[C@@H]2[C@@H](O)C[C@@]2(C)[C@H]1CC[C@]2(OC(=O)c1ccco1)C(=O)SCCO [Example 168, (1R,3aS,3bS,10aR,10bS,11S,12aS)-7-(6-Fluoropyridin-3-yl)-11-hydroxy-1-{[(2-hydroxyethyl)sulfanyl]carbonyl}-10a,12a-dimethyl-1,2,3,3a,3b,4,5,7,10,10a,10b,11,12,12a-tetradecahydrocyclopenta[5,6]naphtho[1,2-f]indazol-1-yl furan-2-carboxylate] | 5.3 nM |
| CNC(=O)[C@@]1(OC(=O)c2ccco2)CC[C@H]2[C@@H]3CCC4=Cc5c(cnn5-c5ccc(F)cc5)C[C@]4(C)[C@H]3[C@@H](O)C[C@@]21C [Example 69, (1R,3aS,3bS,10aR,10bS,11S,12aS)-7-(4-Fluorophenyl)-11-hydroxy-10a,12a-dimethyl-1-(methylcarbamoyl)-1,2,3,3a,3b,4,5,7,10,10a,10b,11,12,12a-tetradecahydropcyclopenta[5,6]naphtho[1,2-f]indazol-1-yl furan-2-carboxylate] | 3 nM |
| C=CCOCc1cc(-n2ncc3c2C=C2CC[C@@H]4[C@H]([C@@H](O)C[C@@]5(C)[C@H]4CC[C@]5(OC(=O)c4ccco4)C(=O)SCC#N)[C@@]2(C)C3)ccc1F [Example 77, (1R,3aS,3bS,10aR,10bS,11S,12aS)-1-{[(Cyanomethyl)thio]carbonyl}-7-{4-fluoro-3-[(prop-2-en-1-yloxy)methyl]phenyl}-11-hydroxy-10a,12a-dimethyl-1,2,3,3a,3b, 4,5,7,10,10a,10b,11,12,12a-tetradecahydrocyclopenta[5,6]naphtho[1,2-f]indazol-1-yl furan-2-carboxylate] | 22 nM |
| C[C@]12Cc3cnn(-c4ccc(F)nc4)c3C=C1CC[C@@H]1[C@@H]2[C@@H](O)C[C@@]2(C)[C@H]1CC[C@]2(OC(=O)c1ccco1)C(=O)SCC#N [Example 166, (1R,3aS,3bS,10aR,10bS,11S,12aS)-1-{[(Cyanomethyl)sulfanyl]carbonyl}-7-(6-fluoropyridin-3-yl)-11-hydroxy-10a,12a-dimethyl-1,2,3,3a,3b,4,5,7,10,10a,10b,11,12,12a-tetradecahydrocyclopenta[5,6]naphtho[1,2-f]indazol-1-yl furan-2-carboxylate] | 5.8 nM |
| Cc1occc1C(=O)O[C@]1(C(=O)SCF)CC[C@H]2[C@@H]3CCC4=Cc5c(cnn5-c5ccc(F)cc5)C[C@]4(C)[C@H]3[C@@H](O)C[C@@]21C [Example 54, (1R,3aS,3bS,10aR,10bS,11S,12aS)-1-{[(Fluoromethyl)thio]carbonyl}-7-(4-fluorophenyl)-11-hydroxy-10a,12a-dimethyl-1,2,3,3a,3b,4,5,7,10,10a,10b,11,12,12a-tetradecahydropcyclopenta[5,6]naphtho[1,2]-indazol-1-yl 2-methylfuran-3-carboxylate] | 7.3 nM |
| C[C@]12Cc3cnn(-c4ccc(F)nc4)c3C=C1CC[C@@H]1[C@@H]2[C@@H](O)C[C@@]2(C)[C@H]1CC[C@]2(OC(=O)C1CC1)C(=O)SCC#N [Example 152, (1R,3aS,3bS,10aR,10bS,11S,12aS)-1-{[(Cyanomethyl)sulfanyl]carbonyl}-7-(6-fluoropyridin-3-yl)-11-hydroxy-10a,12a-dimethyl-1,2,3,3a,3b,4,5,7,10,10a,10b,11,12,12a-tetradecahydrocyclopenta[5,6]naphtho[1,2-f]indazol-1-yl cyclopropanecarboxylate] | 7 nM |
| C[C@]12Cc3cnn(-c4ccc(F)nc4)c3C=C1CC[C@@H]1[C@@H]2[C@@H](O)C[C@@]2(C)[C@H]1CC[C@]2(OC(=O)[C@H]1CCCO1)C(=O)SCF [Example 187, (1R,3aS,3bS,10aR,10bS,11S,12aS)-1-{[(Fluoromethyl)sulfanyl]carbonyl}-7-(6-fluoropyridin-3-yl)-11-hydroxy-10a,12a-dimethyl-1,2,3,3a,3b,4,5,10,10a,10b,11,12,12a-tetradecahydrocyclopenta[5,6]naphtho[1,2-f]indazol-1-yl (2R)-tetrahydrofuran-2-carboxylate] | 2.3 nM |
| CCC(=O)O[C@]1(C(=O)SC(C)C#N)CC[C@H]2[C@@H]3CCC4=Cc5c(cnn5-c5ccc(F)cc5)C[C@]4(C)[C@H]3[C@@H](O)C[C@@]21C (stereo partly drawn) [Example 12, (1R,3aS,3bS,10aR,10bS,11S,12aS)-1-{[(1-Cyanoethyl)thio]carbonyl}-7-(4-fluoro-phenyl)-11-hydroxy-10a,12a-dimethyl-1,2,3,3a,3b,4,5,7,10,10a,10b,11,12,12a-tetradecahydrocyclopenta[5,6]naphtho[1,2-f]indazol-1-yl propanoate] | 5.8 nM |
| CC(C)C(=O)O[C@]1(C(=O)SCC#N)CC[C@H]2[C@@H]3CCC4=Cc5c(cnn5-c5ccc(F)cc5)C[C@]4(C)[C@H]3[C@@H](O)C[C@@]21C [Example 111, (1R,3aS,3bS,10aR,10bS,11S,12aS)-1-{[(Cyanomethyl)sulfanyl]carbonyl}-7-(4-fluorophenyl)-11-hydroxy-10a,12a-dimethyl-1,2,3,3a,3b,4,5,7,10,10a,10b,11,12,12a-tetradecahydrocyclopenta[5,6]naphtho[1,2-f]indazol-1-yl 2-methylpropanoate] | 6.3 nM |
| C[C@]12Cc3cnn(-c4ccc(Cl)cn4)c3C=C1CC[C@@H]1[C@@H]2[C@@H](O)C[C@@]2(C)[C@H]1CC[C@]2(OC(=O)C1CC1)C(=O)SCF [Example 150, (1R,3aS,3bS,10aR,10bS,11S,12aS)-7-(5-Chloropyridin-2-yl)-1-{[(fluoromethyl)sulfanyl]carbonyl}-11-hydroxy-10a,12a-dimethyl-1,2,3,3a,3b,4,5,7,10,10a,10b,11,12,12a-tetradecahydrocyclopenta[5,6]naphtho[1,2-f]indazol-1-yl cyclopropane Carboxylate] | 21 nM |
| CSSCC(=O)[C@@]1(OC(C)=O)CC[C@H]2[C@@H]3CCC4=Cc5c(cnn5-c5ccc(F)cc5)C[C@]4(C)[C@H]3[C@@H](O)C[C@@]21C [Example 134, (1R,3aS,3bS,10aR,10bS,11S,12aS)-7-(4-Fluorophenyl)-11-hydroxy-10a,12a-dimethyl-1-[(methyldisulfanyl)acetyl]-1,2,3,3a,3b,4,5,7,10,10a,10b,11,12,12a-tetradecahydrocyclopenta[5,6]naphtho[1,2-f]indazol-1-yl acetate] | 2.9 nM |
| C[C@]12Cc3cnn(-c4ccc(F)cc4)c3C=C1CC[C@@H]1[C@@H]2[C@@H](O)C[C@@]2(C)[C@H]1CC[C@]2(OC(=O)c1ccno1)C(=O)SCF [Example 60, (1R,3aS,3bS,10aR,10bS,11S,12aS)-1-{[(Fluoromethyl)thio]carbonyl}-7-(4-fluorophenyl)-11-hydroxy-10a,12a-dimethyl-1,2,3,3a,3b,4,5,7,10,10a,10b,11,12,12a-tetradecahydropcyclopenta[5,6]naphtho[1,2]-indazol-1-yl isoxazole-5-carboxylate] | 4.5 nM |
| COCC(=O)O[C@]1(C(=O)SCC#N)CC[C@H]2[C@@H]3CCC4=Cc5c(cnn5-c5ccc(F)nc5)C[C@]4(C)[C@@]3(F)[C@@H](O)C[C@@]21C [Example 205, (1R,3aS,3bS,10aS,10bR,11S,12aS)-1-{[(Cyanomethyl)sulfanyl]carbonyl}-10b-fluoro-7-(6-fluoropyridin-3-yl)-11-hydroxy-10a,12a-dimethyl-1,2,3,3a,3b,4,5,7,10,10a,10b,11,12,12a-tetradecahydrocyclopenta[5,6]naphtho[1,2-f]indazol-1-yl methoxyacetate] | 1.4 nM |
| Cc1ccoc1C(=O)O[C@]1(C(=O)SCC#N)CC[C@H]2[C@@H]3CCC4=Cc5c(cnn5-c5ccc(F)cc5)C[C@]4(C)[C@H]3[C@@H](O)C[C@@]21C [Example 56, (1R,3aS,3bS,10aR,10bS,11S,12aS)-1-{[(Cyanomethyl)thio]carbonyl}-7-(4-fluorophenyl)-11-hydroxy-10a,12a-dimethyl-1,2,3,3a,3b,4,5,7,10,10a,10b,11,12,12a-tetradecahydropcyclopenta[5,6]naphtho[1,2-f]indazol-1-yl 3-methylfuran-2-carboxylate] | 6.5 nM |
| C[C@]12Cc3cnn(-c4cccc(Br)c4)c3C=C1CC[C@@H]1[C@@H]2[C@@H](O)C[C@@]2(C)[C@H]1CC[C@]2(OC(=O)c1ccco1)C(=O)SCF [Example 71, (1R,3aS,10aR,10bS,11S,12aS)-7-(3-Bromophenyl)-1-{[(fluoromethyl)thio]carbonyl}-11-hydroxy-10a,12a-dimethyl-1,2,3,3a,3b,4,5,7,10,10a,10b,11,12,12a-tetradecaphydrocyclopenta[5,6]naphtho[1,2-f]indazol-1-yl furan-2-carboxylate] | 13 nM |
